Read-outs that look alike come from different tables or passages of the source.
Legend:
[1] = target: Beta Secretase enzyme (BACE) (Homo sapiens, UniProt P56817); test: In vitro enzymatic BACE FRET assay; format: biochemical; settings: average IC50, in vitro enzymatic BACE FRET assay; read-out: BACE1 FRET assay IC50
Summary of the method: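 Cleavage of a quenched 50 nM FRET peptide substrate, read as fluorescence (excitation 488 nm, […]) after 1 h and Tris quench to neutrality. Buffer: 0.05 M acetate pH 4.2 with 10% DMSO and 100 uM genapol. Inhibitor dilutions were pre-incubated 1 h with 0.2 nM enzyme.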

[2] = test system: Aβ 40 in conditioned medium of cells stably expressing Amyloid Precursor Protein (APP); test: In vitro BACE cell-based assay (Aβ 40 sandwich ELISA); settings: Homo sapiens, HEK293; average IC50, HEK cell assay, Aβ 40 readout
Summary of the method: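 Aβ40 in conditioned medium measured by pAb40/biotin-6E10 sandwich ELISA with time-resolved europium fluorescence, after 24 h exposure of stable APP cells to compounds (10-point series starting 100 μM or 10 μM; 0.1% DMSO). IC50 fitted from percent of control against concentration.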

[3] = target: Cathepsin D (Cat D) (Homo sapiens, UniProt P07339); test: In vitro enzymatic Cathepsin D (Cat D) FRET assay; format: biochemical
Summary of the method: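 FRET peptide substrate (20 nM) is cleaved by CHO-derived recombinant enzyme (9 nM) for 1 h after a 1 h inhibitor pre-incubation, at pH 3.5 in citrate buffer with 5 mM CHAPS and 10% DMSO. Tris addition ends the reaction; fluorescence measured at 500 nm excitation, 580 nm emission.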

[4] = Cathepsin D FRET assay, read-out: CatD IC50
[5] = text summary referring to data in Table 2

Cathepsin D (Cat D), sequence (P07339 65-412, species assumed): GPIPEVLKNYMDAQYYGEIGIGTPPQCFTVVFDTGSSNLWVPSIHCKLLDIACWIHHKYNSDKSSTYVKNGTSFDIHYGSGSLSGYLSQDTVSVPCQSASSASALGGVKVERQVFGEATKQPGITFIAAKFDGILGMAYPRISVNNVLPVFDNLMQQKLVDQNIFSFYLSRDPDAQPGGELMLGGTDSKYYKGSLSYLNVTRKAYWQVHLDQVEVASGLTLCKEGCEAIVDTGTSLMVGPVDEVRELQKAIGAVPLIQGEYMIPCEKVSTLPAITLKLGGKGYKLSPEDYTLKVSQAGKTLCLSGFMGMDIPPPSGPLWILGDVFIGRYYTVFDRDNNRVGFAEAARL
Beta Secretase enzyme (BACE), sequence (P56817 46-501): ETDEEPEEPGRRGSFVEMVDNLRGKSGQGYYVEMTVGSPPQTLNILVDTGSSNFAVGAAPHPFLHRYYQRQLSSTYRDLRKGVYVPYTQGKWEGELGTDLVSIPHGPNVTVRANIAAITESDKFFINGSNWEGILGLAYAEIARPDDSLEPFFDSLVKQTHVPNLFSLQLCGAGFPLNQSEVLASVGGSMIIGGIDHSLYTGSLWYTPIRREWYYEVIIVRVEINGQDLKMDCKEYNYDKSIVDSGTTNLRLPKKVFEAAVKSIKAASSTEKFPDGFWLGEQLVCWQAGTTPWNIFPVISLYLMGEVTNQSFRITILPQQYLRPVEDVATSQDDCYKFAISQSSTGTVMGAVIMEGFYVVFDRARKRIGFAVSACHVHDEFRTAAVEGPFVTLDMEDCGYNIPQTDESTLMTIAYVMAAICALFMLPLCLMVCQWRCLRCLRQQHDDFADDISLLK

Row | IC50 [1] [µM] | IC50 [2] [µM] | IC50 [3, 4] [µM] | IC50 [3, 5] [µM] | Compound
1 | 0.028 | 0.05 | 400 | – | COc1cnc(C(=O)Nc2ccc3c(c2)[C@@]2(C)N=C(N)C(C)(C)S(=O)(=O)[C@@]2(F)CCO3)cn1 [Example 89, N-((4aS,11bR)-2-amino-4a-fluoro-3,3,11b-trimethyl-4,4-dioxido-4a,5,6,11b-tetrahydro-3H-[1]benzoxepino[4,5-b][1,4]thiazin-10-yl)-5-methoxy-2-pyrazinecarboxamide]
2 | 0.007 | 0.011 | 919 | – | CC1(C)C(N)=N[C@]2(C)c3cc(NC(=O)c4cnc(OCC(F)F)cn4)ccc3OCC[C@H]2S1(=O)=O [Example 90, N-((4aR,11bR)-2-amino-3,3,11b-trimethyl-4,4-dioxido-4a,5,6,11b-tetrahydro-3H-benzo[6,7]oxepino[4,5-b][1,4]thiazin-10-yl)-5-(2,2-difluoroethoxy)pyrazine-2-carboxamide]
3 | 0.019 | 0.027 | 1870 | > 1200 | Cc1nc(OCC(F)F)cnc1C(=O)Nc1ccc2c(c1)[C@@]1(C)N=C(N)C(C)(C)S(=O)(=O)[C@@H]1CCO2 [Example 91, N-((4aR,11bR)-2-amino-3,3,11b-trimethyl-4,4-dioxido-4a,5,6,11b-tetrahydro-3H-[1]benzoxepino[4,5-b][1,4]thiazin-10-yl)-5-(2,2-difluoroethoxy)-3-methyl-2-pyrazinecarboxamide]
4 | 0.122 | 0.026 | 3050 | > 1200 | COCc1ccc(C(=O)Nc2ccc3c(c2)[C@@]2(C)N=C(N)C(C)(C)S(=O)(=O)[C@@H]2CCO3)nc1 [Example 92, N-((4aR,11bR)-2-amino-3,3,11b-trimethyl-4,4-dioxido-4a,5,6,11b-tetrahydro-3H-[1]benzoxepino[4,5-b][1,4]thiazin-10-yl)-5-(methoxymethyl)-2-pyridinecarboxamide]
5 | 0.011 | 0.054 | 513 | – | Cc1cc(C(F)(F)F)cnc1C(=O)Nc1ccc2c(c1)[C@@]1(C)N=C(N)C(C)(C)S(=O)(=O)[C@]1(F)CCO2 [Example 93, N-((4aR,11bR)-2-amino-4a-fluoro-3,3,11b-trimethyl-4,4-dioxido-4a,5,6,11b-tetrahydro-3H-[1]benzoxepino[4,5-b][1,4]thiazin-10-yl)-3-methyl-5-(trifluoromethyl)-2-pyridinecarboxamide]
6 | 0.014 | 0.061 | 248 | – | Cc1cc(OC(F)F)cnc1C(=O)Nc1ccc2c(c1)[C@@]1(C)N=C(N)C(C)(C)S(=O)(=O)[C@]1(F)CCO2 [Example 95, N-((4aR,11bR)-2-amino-4a-fluoro-3,3,11b-trimethyl-4,4-dioxido-4a,5,6,11b-tetrahydro-3H-[1]benzoxepino[4,5-b][1,4]thiazin-10-yl)-5-(difluoromethoxy)-3-methyl-2-pyridinecarboxamide]
7 | 0.033 | 0.098 | 1180 | – | CC1(C)C(N)=N[C@]2(C)c3cc(NC(=O)c4ccc(OCC(F)F)cn4)ccc3OCC[C@H]2S1(=O)=O [Example 96, N-((4aR,11bR)-2-amino-3,3,11b-trimethyl-4,4-dioxido-4a,5,6,11b-tetrahydro-3H-[1]benzoxepino[4,5-b][1,4]thiazin-10-yl)-5-(2,2-difluoroethoxy)-2-pyridinecarboxamide]
8 | 0.022 | 0.069 | 974 | – | CC1(C)C(N)=N[C@]2(C)c3cc(NC(=O)c4ccc(OCC(F)(F)F)cn4)ccc3OCC[C@H]2S1(=O)=O [Example 97, N-((4aR,11bR)-2-amino-3,3,11b-trimethyl-4,4-dioxido-4a,5,6,11b-tetrahydro-3H-[1]benzoxepino[4,5-b][1,4]thiazin-10-yl)-5-(2,2,2-trifluoroethoxy)-2-pyridinecarboxamide]
9 | 0.002 | 0.0005 | 318 | – | CC#CCOc1cnc(C(=O)Nc2ccc3c(c2)[C@@]2(C)N=C(N)C(C)(C)S(=O)(=O)[C@@H]2CC(C)(C)O3)cn1 [Example 98, N-((4aR,11bR)-2-amino-3,3,6,6,11b-pentamethyl-4,4-dioxido-4a,5,6,11b-tetrahydro-3H-[1]benzoxepino[4,5-b][1,4]thiazin-10-yl)-5-(2-butyn-1-yloxy)-2-pyrazinecarboxamide]
10 | 0.008 | 0.002 | > 400 | – | Cc1cc(C#N)cnc1C(=O)Nc1ccc2c(c1)[C@@]1(C)N=C(N)C(C)(C)S(=O)(=O)[C@@H]1CC(C)(C)O2 [Example 99, N-((4aR,11bR)-2-amino-3,3,6,6,11b-pentamethyl-4,4-dioxido-4a,5,6,11b-tetrahydro-3H-[1]benzoxepino[4,5-b][1,4]thiazin-10-yl)-5-cyano-3-methyl-2-pyridinecarboxamide]
11 | 0.025 | 0.012 | 1340 | > 1200 | COc1cnc(C(=O)Nc2ccc3c(c2)[C@@]2(C)N=C(N)C(C)(C)S(=O)(=O)[C@@H]2CC(C)(C)O3)cn1 [Example 100, N-((4aR,11bR)-2-amino-3,3,6,6,11b-pentamethyl-4,4-dioxido-4a,5,6,11b-tetrahydro-3H-[1]benzoxepino[4,5-b][1,4]thiazin-10-yl)-5-methoxy-2-pyrazinecarboxamide]
12 | 0.029 | 0.019 | 835 | – | COc1cnc(C(=O)Nc2ccc3c(c2)[C@@]2(C)N=C(N)C(C)(C)S(=O)(=O)[C@@H]2CC(C)(C)O3)c(C)n1 [Example 101, N-((4aR,11bR)-2-amino-3,3,6,6,11b-pentamethyl-4,4-dioxido-4a,5,6,11b-tetrahydro-3H-[1]benzoxepino[4,5-b][1,4]thiazin-10-yl)-5-methoxy-3-methyl-2-pyrazinecarboxamide]
13 | 0.001 | 0.002 | 284 | – | CC#CCOc1cnc(C(=O)Nc2ccc3c(c2)[C@@]2(C)N=C(N)C(C)(C)S(=O)(=O)[C@H]2CC(C)(C)O3)cn1 [Example 102, N-((4aS,11bR)-2-amino-3,3,6,6,11b-pentamethyl-4,4-dioxido-4a,5,6,11b-tetrahydro-3H-[1]benzoxepino[4,5-b][1,4]thiazin-10-yl)-5-(2-butyn-1-yloxy)-2-pyrazinecarboxamide]
14 | 0.018 | 0.023 | 143 | – | Cc1cc(C(F)(F)F)cnc1C(=O)Nc1ccc2c(c1)[C@@]1(C)N=C(N)C(C)(C)S(=O)(=O)[C@H]1CC(C)(C)O2 [Example 103, N-((4aS,11bR)-2-amino-3,3,6,6,11b-pentamethyl-4,4-dioxido-4a,5,6,11b-tetrahydro-3H-[1]benzoxepino[4,5-b][1,4]thiazin-10-yl)-3-methyl-5-(trifluoromethyl)-2-pyridinecarboxamide]
15 | 0.004 | 0.013 | 1480 | – | Cc1cc(C(F)(F)F)cnc1C(=O)Nc1ccc2c(c1)[C@@]1(CF)N=C(N)C(C)(C)S(=O)(=O)[C@H]1C[C@H](C)O2 [Example 105, N-((4aS,6S,11bS)-2-amino-11b-(fluoromethyl)-3,3,6-trimethyl-4,4-dioxido-4a,5,6,11b-tetrahydro-3H-[1]benzoxepino[4,5-b][1,4]thiazin-10-yl)-3-methyl-5-(trifluoromethyl)-2-pyridinecarboxamide]
16 | 0.095 | 0.11 | > 400 | – | COc1cnc(C(=O)Nc2ccc3c(c2)[C@@]2(CF)N=C(N)C(C)(C)S(=O)(=O)[C@@H]2C[C@H](C)O3)cn1 [Example 107, N-((4aR,6S,11bS)-2-amino-11b-(fluoromethyl)-3,3,6-trimethyl-4,4-dioxido-4a,5,6,11b-tetrahydro-3H-[1]benzoxepino[4,5-b][1,4]thiazin-10-yl)-5-methoxy-2-pyrazinecarboxamide]
17 | 0.013 | 0.018 | 388 | – | COc1cnc(C(=O)Nc2ccc3c(c2)[C@@]2(CF)N=C(N)C(C)(C)S(=O)(=O)[C@H]2C[C@H](C)O3)cn1 [Example 108, N-((4aS,6S,11bS)-2-amino-11b-(fluoromethyl)-3,3,6-trimethyl-4,4-dioxido-4a,5,6,11b-tetrahydro-3H-[1]benzoxepino[4,5-b][1,4]thiazin-10-yl)-5-methoxy-2-pyrazinecarboxamide]
18 | 0.003 | 0.008 | > 400 | – | C[C@H]1C[C@H]2[C@](CF)(N=C(N)C(C)(C)S2(=O)=O)c2cc(Nc3nccc4cc(C#N)cnc34)ccc2O1 [Example 109, 8-(((4aS,6S,11bS)-2-amino-11b-(fluoromethyl)-3,3,6-trimethyl-4,4-dioxido-4a,5,6,11b-tetrahydro-3H-[1]benzoxepino[4,5-b][1,4]thiazin-10-yl)amino)-1,7-naphthyridine-3-carbonitrile]
19 | 0.013 | 0.021 | > 400 | – | C[C@H]1C[C@@H]2[C@](CF)(N=C(N)C(C)(C)S2(=O)=O)c2cc(Nc3nccc4cc(C#N)cnc34)ccc2O1 [Example 110, 8-(((4aR,6S,11bS)-2-amino-11b-(fluoromethyl)-3,3,6-trimethyl-4,4-dioxido-4a,5,6,11b-tetrahydro-3H-[1]benzoxepino[4,5-b][1,4]thiazin-10-yl)amino)-1,7-naphthyridine-3-carbonitrile]

Reference: patent US9309263B2, “Fused multi-cyclic sulfone compounds as inhibitors of beta-secretase and methods of use thereof” (AMGEN INC., priority 2013, dated 2016)
